Assay results taken from patent publication US12195479B2, “Five- and six-membered compound, and preparation method therefor and pharmaceutical composition and use thereof” (HANGZHOU POLYMED BIOPHARMACEUTICALS, INC., priority 2021, dated 2025).

How the values were obtained:
FLT3 kinase = molecular target: T1, FLT3 kinase (Homo sapiens, UniProt P36888); test: Kinase inhibition, fluorescence microfluidic mobility shift assay (FLT3); assay type: biochemical; settings: substrate peptide FAM-P2 3 μM, ATP 97 μM; one hour at 28° C.; assayed in duplicate
T1 sequence (P36888 564-993): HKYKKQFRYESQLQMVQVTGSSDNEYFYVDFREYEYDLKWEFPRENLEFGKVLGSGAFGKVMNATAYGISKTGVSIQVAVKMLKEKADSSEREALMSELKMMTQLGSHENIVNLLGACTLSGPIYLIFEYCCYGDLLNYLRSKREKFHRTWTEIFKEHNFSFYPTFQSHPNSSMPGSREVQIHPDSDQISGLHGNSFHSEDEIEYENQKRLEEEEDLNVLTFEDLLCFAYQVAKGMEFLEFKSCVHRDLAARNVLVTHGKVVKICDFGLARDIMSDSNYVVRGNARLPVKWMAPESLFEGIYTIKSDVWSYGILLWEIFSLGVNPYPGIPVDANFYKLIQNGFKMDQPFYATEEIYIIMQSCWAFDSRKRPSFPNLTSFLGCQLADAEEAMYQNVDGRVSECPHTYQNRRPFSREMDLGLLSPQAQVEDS
Procedure: Based on the experimental method of fluorescence microfluidic mobility shift assay, the IC50 value of the compound for competitive binding of ATP to kinases IRAK4 and FLT3 was determined. The initial detection concentration of the compound was 10 μM, which was diluted to 0.38 nM with a 4-fold gradient and assayed in duplicate. In this case, commercially available staurosporine was the standard control for the assay.
Information on reagents and consumables is as follows: • IRAK4 kinase (Carna, Cat. No. 09-145, Lot. No. 14CBS-0020 H) • FLT3 kinase (Carna, Cat. No. 08-154, Lot. No. 07CBS-2350) • Substrate peptide FAM-P2 (GL Biochem, Cat. No. 112394, Lot. No. P131014-XP112394) • Substrate peptide FAM-P8 (GL Biochem, Cat. No. 112396, Lot. No. P170731-SY112396) • ATP (adenosine triphosphate, Sigma, Cat. No. A7699-1G, CAS No. 987-65-5) • DMSO (dimethyl sulfoxide, Sigma, Cat. No. D2650) • EDTA (ethylenediaminetetraacetic acid, Sigma, Cat. No. E5134, CAS No. 60-00-4) • Staurosporine (Selleckchem, Cat. No. 51421) • HEPES (4-(2-Hydroxyethyl)-1-piperazineethanesulfonic acid, Gibco, Cat. No. 15630-080) • Brij-35 solution (Polyoxyethylene lauryl ether, Sigma, Cat. No. B41840-100 mL) • DTT (dithiothreitol, Sigma, Cat. No. D0632-20G) • 0.2% Coating Reagent #3 (0.2% coating reagent, Perkin Elmer, Cat. No. 760050) • 96-well plate (Corning, Cat. No. 3365) • 384-well plate (Corning, Cat. No. 3573) Experimental operation method: • 1) FLT3 and IRAK4 kinases were dissolved in the kinase buffer (50 mM HEPES pH 7.5, 10 mM MgCl2, 2 mM DTT, and 0.01% Brij-35) at final concentrations of 0.9 nM, 30 nM, and 6 nM, respectively. • 2) The substrate peptide FAM-P2 and the substrate peptide FAM-P8, together with ATP, were dissolved in the above kinase buffer, respectively, where the final concentrations of the substrate peptide FAM-P2 and ATP for the determination of FLT3 were 3 μM and 97 μM, respectively; and the final concentrations of the substrate peptide FAM-P8 and ATP for the determination of IRAK4 were 3 μM and 10 μM, respectively. • 3) Compound dilution: The compound was first diluted to 50 μM, and then diluted downward with DMSO in a 4-fold gradient. In this case, the solution without compound and kinase served as the blank control, corresponding to the “minimum value” shown below; the solution without compound but containing kinase, adenosine triphosphate, DMSO, and the buffer served as the positive control, corresponding to the “maximum value” shown below. • 4) Kinase reaction and termination: 10 μL of the kinase buffer was added to a 384-well plate containing 5 μL of the compound to be tested, and the mixture was incubated for 10 minutes at room temperature; another 10 μL, of buffer containing the substrate peptide and adenosine triphosphate was added to the 384-well plate, and after incubation for one hour at 28° C., 25 μL, of termination solution (100 mM HEPES pH 7.5, 50 mM EDTA, 0.2% Coating Reagent #3, and 0.015% Brij-35) was added to each well for reaction termination. • 5) Data reading: CaliperEZ Reader II instrument was used to read the conversion rate data. Setting conditions: downstream voltage as −500 V, upstream voltage as −2250 V, base pressure as −0.5 PSI, and screening pressure as −1.2 PSI. • 6) Data calculation: the conversion rate data was copied from CaliperEZ Reader II, and the conversion rate was converted into inhibition rate data.

IRAK4 kinase = molecular target: T2, IRAK4 kinase (Homo sapiens, UniProt Q9NWZ3); test: Kinase inhibition, fluorescence microfluidic mobility shift assay (IRAK4); assay type: biochemical; settings: substrate peptide FAM-P8 3 μM, ATP 10 μM; one hour at 28° C.; assayed in duplicate
T2 sequence (Q9NWZ3 1-460): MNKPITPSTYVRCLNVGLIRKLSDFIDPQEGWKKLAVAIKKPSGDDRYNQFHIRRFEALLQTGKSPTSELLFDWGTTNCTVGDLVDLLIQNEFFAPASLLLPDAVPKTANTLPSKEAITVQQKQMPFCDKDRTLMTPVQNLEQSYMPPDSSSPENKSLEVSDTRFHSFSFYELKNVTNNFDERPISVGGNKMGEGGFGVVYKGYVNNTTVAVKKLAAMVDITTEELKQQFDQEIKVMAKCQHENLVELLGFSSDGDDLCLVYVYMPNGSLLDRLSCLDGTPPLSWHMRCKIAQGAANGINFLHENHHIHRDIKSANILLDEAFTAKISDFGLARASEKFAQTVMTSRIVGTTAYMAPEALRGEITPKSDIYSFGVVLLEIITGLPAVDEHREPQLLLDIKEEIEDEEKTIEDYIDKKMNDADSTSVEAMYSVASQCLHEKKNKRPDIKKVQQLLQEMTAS

MV4-11 cells = test: Cytotoxicity against MV4-11 cells (CellTiter-Glo); assay type: cell-based; settings: Homo sapiens, incubated for 72 hours, CellTiter-Glo chemiluminescence
Procedure: Determination of the IC50 Value of the Compound's Cytotoxicity Against MV4-11 Cells
MV-4-11 cells were cultured with IMDM complete medium (IMDM+10% fetal bovine serum+1% Penicillin-Streptomycin, a mixture of penicillin-streptomycin). • 2. MV-4-11 cells in good condition were collected and washed twice with DPBS ([…] phosphate buffered saline solution). • 3. MV-4-11 cells were resuspended with IMDM complete medium, the cell density was adjusted to 1.11×10^6 cells/mL, and the MV-4-11 cells were added to 96-well plates at 90 μL per well. • 4. A compound solution with 10-fold concentration was prepared with IMDM complete medium, 10 μL of the compound solution with 10-fold concentration was added to the cells in the 96-well plate, mixed well, and then the 96-well plate was placed in a 5% CO2 incubator at 37° C. and incubated for 72 hours. • 5. After the incubation, the 96-well plate was taken out and equilibrated for 30 minutes at room temperature. Then 100 μL of CellTiter Glo reagent was added to each well and mixed on a horizontal shaker for 2 minutes. • 6. The 96-well plate was removed, equilibrated at room temperature for 10 minutes, and the chemiluminescence value was detected on a microplate reader.

IC50 (FLT3 kinase) [nM]	IC50 (IRAK4 kinase) [nM]	Structure (SMILES)	IC50 (MV4-11 cells) [nM]
0.29	11.7	Cc1cc(-c2nc(C(=O)Nc3cc4cn(CC5(F)CNC5)nc4cc3C(C)(C)O)co2)ccn1 [II-108]	22
4.2	6.48	[2H]C([2H])([2H])C(O)(c1cc2nn(CCC(C)(C)O)cc2cc1NC(=O)c1coc(-c2ccnc(C(F)(F)F)c2)n1)C([2H])([2H])[2H] [II-109]	15.2
0.42	4.94	Cc1cc(-c2nc(C(=O)Nc3cc4cn(CCC(C)(C)O)nc4cc3C(C)(O)C(F)(F)F)co2)ccn1 (stereo not drawn) [II-111]	0.8
2.8	6.96	CC(C)(O)c1cc2nn([C@H]3CC[C@@H](O)CC3)cc2cc1NC(=O)c1coc(-c2ccnc(C(F)(F)F)c2)n1 [II-112]	11.9
0.38	4.6	CC(C)N1CCC(n2cc3cc(NC(=O)c4coc(-c5ccnc(C(F)(F)F)c5)n4)c(C(C)(C)O)cc3n2)CC1 [II-113F]	6
0.26	5.9	Cc1cc(-c2nc(C(=O)Nc3cc4cn(C5CC6CCC(C5)O6)nc4cc3C(C)(C)O)co2)ccn1 (stereo not drawn) [II-114]	1.3
0.25	11	Cc1cc(-c2nc(C(=O)Nc3cc4cn(CC5(F)COC5)nc4cc3C(C)(C)O)co2)ccn1 [II-115]	2.5
4	5.54	[2H]C([2H])([2H])C(O)(CCn1cc2cc(NC(=O)c3coc(-c4ccnc(C(F)(F)F)c4)n3)c(C(C)(C)O)cc2n1)C([2H])([2H])[2H] [II-117]	23.2
3.5	9.1	CC(C)(O)c1cc2nn(C3CCOCC3)cc2cc1NC(=O)c1coc(-c2ccnc(C(F)(F)F)c2)n1 [II-121]	33
6.23	14.1	Cc1cc(-c2nc(C(=O)Nc3cc4oc(N5CCOCC5)nc4nc3C(C)(C)O)co2)ccn1 [II-122]	33
0.31	4.8	Cc1cc(-c2nc(C(=O)Nc3cc4sc(N5CCOCC5)nc4nc3C(C)(C)O)co2)ccn1 [II-124]	5
11	57	Cc1cc(-c2nc(C(=O)Nc3cc4oc(N5CCC(F)(F)CC5)nc4nc3N3CCC(O)C3)co2)ccn1 (stereo not drawn) [II-129]	49.6
0.35	7.18	Cc1cc(-c2nc(C(=O)Nc3cc4oc(N5CCOCC5)nc4cc3N3CCC(O)C3)co2)ccn1 (stereo not drawn) [II-132]	1.2
0.26	4.84	Cc1cc(-c2nc(C(=O)Nc3cc4sc(N5CCOCC5)nc4cc3N3CCC(O)C3)co2)ccn1 (stereo not drawn) [II-133]	0.2

Structure (SMILES)	IC50 (FLT3 kinase) [nM]	IC50 (IRAK4 kinase) [nM]	IC50 (MV4-11 cells) [nM]
CC(C)(O)c1cc2nn(C3CC4CCC(C3)N4)cc2cc1NC(=O)c1coc(-c2ccnc(C(F)(F)F)c2)n1 (stereo not drawn) [II-118]	0.44	12.2	6.2
